After the bases stand the sugars from the 5' end (letter, count) and the backbone: PS all phosphorothioate, else s phosphorothioate and o phosphodiester by linkage. Methylation of C is not given here. e = 2'-O-(2-methoxyethyl) (MOE); k = constrained ethyl (cEt); d = 2'-deoxy (DNA); m = 2'-O-methyl

Experimental findings from the OligoGym collection are described below.

This data set concerns the target HSD17B13. The conditions noted are these: ASO, HepaRG.

Take “AAGACATTCTAGCCTG (sugars kkdddddddddkekek, PS)”: the target mRNA inhibition (1 µM) amounted to 25%.
ACCTTGAATGAGTGGT (sugars k3 d10 k3, PS) registered a target mRNA inhibition (1 µM) of 26%.
In turn, TAAAGCAGGCTACTTT (sugars k3 d10 k3, PS) showed a target mRNA inhibition (1 µM) of 9%.
The sequence “AACTTCATAGTGGACT (sugars k3 d9 k3 e1, PS)” returned a target mRNA inhibition (1 µM) of 70%.
As to GTCTGCCTGCCTATTC (sugars k3 d10 k3, PS), for the setting “1 µM”, the target mRNA inhibition came out at 53%.
In turn, “CTTTGCAGCATTGATT (sugars kkdddddddddkekek, PS)” displayed a target mRNA inhibition (1 µM) of 49%.
For the sequence “ATTCUGTGGCATGGCT (sugars k3 d1 m1 d8 k3, PS)”, the target mRNA inhibition (1 µM) was found to be 59%.
Same read-out and setting: the same measure for AGGAAGTGATCCATAT (sugars k3 d10 k3, PS): 60%.
On to ATGTAGTGGGAGTCGG (sugars k3 d10 k3, PS), for which the target mRNA inhibition (1 µM) was 72%.
The same measure, in the same setting: in the case of TGCAAGATTTACTTCC (sugars k3 d10 k3, PS) it was 45%.
Regarding “TTAGUATAGTTATCTT (sugars k3 d1 m1 d8 k3, PS)”, for the setting “1 µM”, the target mRNA inhibition came out at 22%.
On to “CTGTGGCATGGCTACA (sugars k3 d1 m1 d8 k3, PS)”, for which the target mRNA inhibition (1 µM) amounted to 35%.
With TTCACCTGATTTAGAG (sugars k3 d10 k3, PS), the target mRNA inhibition (1 µM) was 9%.
Where the note is “1 µM”, GAAAAGATGTACACTG (sugars k3 d10 k3, PS) registered a target mRNA inhibition of 56%.
With TAATTTTTGAGCCTAA (sugars k3 d10 k3, PS), the target mRNA inhibition (1 µM) was 41%.
Take GTATCTTATAAGACTA (sugars k3 d10 k3, PS): the target mRNA inhibition by setting is: (0.02 µM) 50%; (0.078 µM) 61%; (0.313 µM) 68%; (1 µM) 81%; (1.25 µM) 87%; (5 µM) 95%.
In the case of AGTTAGGGAGCCAGCG (sugars k3 d10 k3, PS), the target mRNA inhibition (1 µM) was 38%.
On the same count and under the same terms, the same measure for “GCTGUAAGAGTCAGTA (sugars k3 d1 m1 d8 k3, PS)”: 28%; for CCTTACCAGAATTTAC (sugars k3 d10 k3, PS): 63%; for CCTTATGATAATTTGG (sugars k3 d10 k3, PS): 29%.
TCAGTATCCCCTCAAA (sugars k3 d10 k3, PS) yielded a target mRNA inhibition (1 µM) of 64%.
“TCTTGACAATGGTTGC (sugars k3 d9 k3 e1, PS)”: the target mRNA inhibition reads like this: (0.02 µM) 0%; (0.078 µM) 0%; (0.313 µM) 11%; (1 µM) 77%; (1.25 µM) 46%; (5 µM) 79%.
For the sequence CCAACGACTCCAAGTA (sugars k3 d10 k3, PS), the target mRNA inhibition (1 µM) was 20%.
Consider AGTGCTTTTGTGATCC (sugars k3 d10 k3, PS), for which the target mRNA inhibition (1 µM) is 25%.
The sequence AAGTCCAGAATAGAGT (sugars k3 d10 k3, PS) came in with a target mRNA inhibition (1 µM) of 60%.
Sequence TGAGAGTATAAATGGC (sugars k3 d10 k3, PS) had a target mRNA inhibition (1 µM) of 67%.
In the case of “TCGGTCACCTTTCATA (sugars kkdddddddddkekek, PS)”, the target mRNA inhibition (1 µM) turned out to be 63%.
For GTTTTATAACTGAGCT (sugars k3 d10 k3, PS), the target mRNA inhibition came out at 16% (0.02 µM); 29% (0.078 µM); 53% (0.313 µM); 84% (1 µM); 84% (1.25 µM); 85% (5 µM).
Sequence TGTAATAGCCAGTACA (sugars k3 d10 k3, PS) showed a target mRNA inhibition (1 µM) of 46%.
In turn, CCTTAGGAAAGCTCAT (sugars k3 d10 k3, PS) displayed a target mRNA inhibition (1 µM) of 29%.
The same measure, in the same setting: in the case of “ATAACTACAAGAGGTT (sugars k3 d9 k3 e1, PS)” it was 67%.
For the sequence TTTCGAATCATTAAGC (sugars k3 d10 k3, PS), the target mRNA inhibition (1 µM) was 30%.
